Data reported in patent US11723898B2, “Androgen receptor inhibitors for the treatment of non-metastatic castration-resistant prostate cancer in subjects with severe hepatic impairment” (Aragon Pharmaceuticals, Inc., priority 2019, dated 2023).

How the values were obtained:
[1] = biological target: AR (Homo sapiens, UniProt P10275); settings: cited from earlier work
[2] = pharmacokinetic study data, subjects with mild and moderate hepatic impairment versus healthy controls; format: in vivo, human
[3] = system: non-castrate hormone-sensitive and bicalutamide-resistant human prostate cancer xenograft models; settings: cited from earlier work
[4] = biological target: T1, T877A AR mutant (Homo sapiens, UniProt P10275, T878A); settings: cited from earlier work
T1 sequence (P10275 1-920 T878A): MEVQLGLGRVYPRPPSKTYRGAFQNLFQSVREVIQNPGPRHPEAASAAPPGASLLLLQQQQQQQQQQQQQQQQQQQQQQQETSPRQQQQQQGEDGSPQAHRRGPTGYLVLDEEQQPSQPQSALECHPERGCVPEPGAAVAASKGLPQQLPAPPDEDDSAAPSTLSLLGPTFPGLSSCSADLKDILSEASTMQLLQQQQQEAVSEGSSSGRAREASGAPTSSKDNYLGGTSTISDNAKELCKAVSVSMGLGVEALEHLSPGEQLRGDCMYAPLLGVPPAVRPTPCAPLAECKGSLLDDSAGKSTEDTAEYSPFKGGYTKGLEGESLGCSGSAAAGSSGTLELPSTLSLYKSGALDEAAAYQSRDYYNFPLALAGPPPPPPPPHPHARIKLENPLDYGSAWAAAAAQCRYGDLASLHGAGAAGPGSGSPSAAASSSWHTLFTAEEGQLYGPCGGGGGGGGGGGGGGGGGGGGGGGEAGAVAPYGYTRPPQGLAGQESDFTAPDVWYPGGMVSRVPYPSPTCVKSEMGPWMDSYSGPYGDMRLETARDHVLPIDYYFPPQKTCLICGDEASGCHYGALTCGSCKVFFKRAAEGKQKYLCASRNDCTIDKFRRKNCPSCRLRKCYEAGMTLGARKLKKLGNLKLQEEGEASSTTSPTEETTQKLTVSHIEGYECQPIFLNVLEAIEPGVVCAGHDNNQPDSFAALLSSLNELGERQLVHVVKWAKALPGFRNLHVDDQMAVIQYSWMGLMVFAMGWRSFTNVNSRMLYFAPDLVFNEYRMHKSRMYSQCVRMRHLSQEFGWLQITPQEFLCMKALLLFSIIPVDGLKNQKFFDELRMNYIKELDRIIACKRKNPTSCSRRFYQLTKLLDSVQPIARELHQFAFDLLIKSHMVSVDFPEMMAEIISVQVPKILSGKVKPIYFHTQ

Sequence of AR (P10275 whole entry): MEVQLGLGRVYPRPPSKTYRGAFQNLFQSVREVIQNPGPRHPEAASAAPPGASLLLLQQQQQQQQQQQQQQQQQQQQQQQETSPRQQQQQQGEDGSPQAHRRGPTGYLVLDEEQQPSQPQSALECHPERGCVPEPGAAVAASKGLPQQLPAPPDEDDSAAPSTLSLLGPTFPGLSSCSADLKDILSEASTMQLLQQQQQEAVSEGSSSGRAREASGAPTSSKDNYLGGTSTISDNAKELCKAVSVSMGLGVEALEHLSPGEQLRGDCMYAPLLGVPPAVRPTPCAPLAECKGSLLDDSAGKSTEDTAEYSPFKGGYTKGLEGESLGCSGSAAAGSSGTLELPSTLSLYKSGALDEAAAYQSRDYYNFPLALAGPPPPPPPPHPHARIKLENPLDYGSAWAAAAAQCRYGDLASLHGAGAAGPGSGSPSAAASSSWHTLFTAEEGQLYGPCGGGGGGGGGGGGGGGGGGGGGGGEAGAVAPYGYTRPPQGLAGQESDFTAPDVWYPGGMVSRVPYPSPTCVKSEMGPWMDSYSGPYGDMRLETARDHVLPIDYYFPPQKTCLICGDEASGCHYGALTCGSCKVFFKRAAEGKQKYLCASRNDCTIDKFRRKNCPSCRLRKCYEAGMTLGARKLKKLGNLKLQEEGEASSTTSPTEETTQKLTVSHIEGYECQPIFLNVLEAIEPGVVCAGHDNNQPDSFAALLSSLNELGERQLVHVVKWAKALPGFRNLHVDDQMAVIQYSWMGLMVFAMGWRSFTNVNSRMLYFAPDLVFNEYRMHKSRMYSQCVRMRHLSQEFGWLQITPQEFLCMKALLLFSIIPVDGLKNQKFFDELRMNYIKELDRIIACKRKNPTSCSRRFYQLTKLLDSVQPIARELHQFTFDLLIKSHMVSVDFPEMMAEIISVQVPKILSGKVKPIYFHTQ

For `CC(O)c1cc(C(=O)N[C@@H](C)Cn2ccc(-c3ccc(C#N)c(Cl)c3)n2)n[nH]1` (stereo partly drawn) [Darolutamide, N-{(2S)-1-[3-(3-chloro-4-cyanophenyl)-1H-pyrazol-1-yl]propan-2-yl}-5-(1-hydroxyethyl)-1H-pyrazole-3-carboxamide], the “binding affinity for AR” value [1] is given as “high affinity”.
In the case of `CNC(=O)c1ccc(N2C(=S)N(c3cnc(C#N)c(C(F)(F)F)c3)C(=O)C23CCC3)cc1F` [apalutamide, 4-[7-(6-cyano-5-trifluoromethylpyridin-3-yl)-8-oxo-6-thioxo-5,7-diazaspiro[3.4]oct-5-yl]-2-fluoro-N-methylbenzamide], the “total coefficient of variation (CV) for AUCs (AUClast and AUC∞)” value [2] is given as at most 27%, the “total coefficient of variation (CV) for Cmax” value [2] is given as at most 35% and the tumor regression [3] is given as “partial or complete tumor regression”.
In the case of `CC(C)(O)C(=O)Nc1ccc([N+](=O)[O-])c(C(F)(F)F)c1` [hydroxyflutamide], the agonist activity [4] is listed as “act as AR agonists”.
